Measurements as given in patent publication US6514964B1, “Fused cycloheptane and fused azacycloheptane compounds and their methods of use” (Amgen Inc., priority 1999, dated 2003).
pIC50: −log10 of the molar value. Structures can show the parent of a compound that is named as a salt.

System: human umbilical cord endothelial cells (HUVEC)
Assay: HUVEC proliferation assay and/or HUVEC adhesion assay
Assay type: cell-based
Settings: bound stated for the listed compounds
Procedure: HUVEC Proliferation Assay
1. Coat 3 NUNC polystyrene 96 well plate (VWR, 62409-120; lids 62409-118) with vitronectin (purified internally), fibronectin (Collaborative Biomed 40008A) or fibrinogen (Calbiochem 341578) 50 ng/well in 50 μl PBS, 1 hr @ RT.
a. rinse with 5 mls PBS (no Ca, Mg)
3. Rinse vitronectin plates 1× in 200 μl PBS −/− and add 3000 cells per well in 100 ul growth medium (EBM2 (Clonetics, CC-3156)+EGM2 bullet kit (CC-4176)).
4. Incubate 24 hours at 37° C. to allow attachment.
5. Remove growth medium and add 100 μl growth medium+drugs (25 μM and down by five fold steps in DMSO-0.25% final DMSO concentration).
6. Incubate for 3 days changing media (+drugs).
7. Remove non-adherent cells on Friday with Raindance 12 well plate washer.
8. Wash twice with 200 μl PBS (+Mg & Ca).
9. Tap out excess liquid.
10. Freeze @ −70° C. for 30 minutes.
11. Thaw plate and add 150 μl CyQuant fluorescent dye (Molecular Probes C-7026).
12. Read after 4 minutes @ 485λ (excitation), 530λ (emission).
1. Coat 2 NUNC polystyrene 96 well plates (VWR, 62409-120; lids 62409-118) with 50 μl vitronectin (purified internally) at 50 ng/well in PBS (−Mg & Ca), for 1 hour @ 37° C.
2. Rinse with PBS & block with 150 μl PBS/1% BSA (Sigma A8918), 1 hour at @ 37° C.
3. Prepare drug dilutions:
a. 400 fold concentrate in 100% DMSO
b. 0.25% DMSO [assay]final
c. 10 mM & down (25 μMfinal & down)
d. dilute 1 μl of 400 fold conc into 200 μl adhesion media
a. rinse with 5 ml PBS (no Ca, Mg)
6. Rinse blocking buffer from assay plate and add 50 μl of drug dilutions.
7. Resuspend cells in adhesion media, count and add 2e4 cells/well in 50 μl (4e5/ml).
8. Incubate 60 minutes @ 37° C.
9. Remove non-adherent cells with Raindance 12 well plate washer.
10. Wash twice with 200 μl PBS (+Mg & Ca)
11. Tap out excess liquid.
12. Freeze @ −70° C. for 30 minutes to overnite.
13. Thaw plate and add 150 μl CyQuant fluorescent dye (Molecular Probes C-7026).
14. Read after 2-5 minutes @ 485λ (excitation), 530λ (emission).
Adhesion medium: Media 199 (which contains […] and 0.8 mM MgSO4), 0.5% BSA, 10 mM HEPES, 1 mM MgCl2, and 1 mM MnCl2

| Structure (SMILES) | pIC50 |
| --- | --- |
| Cc1cc(CCCNC(=O)N2CCC(CC(=O)O)c3ccccc3C2)nc2c1CCCN2 (stereo not drawn) [2-(2-{N-[3-(5-methyl-1,2,3,4-tetrahydropyridino[2,3-b]pyridin-7-yl)propyl]carbamoyl}-1H, 3H, 4H, 5H-benzo[e]azepin-5-yl)acetic acid] | ≥ 4.52 |
| O=C(O)CC1CN(C(=O)NCCc2ccc3c(n2)NCCC3)CCc2ccccc21 (stereo not drawn) [2-(3-(N-(2-(1,2,3,4-tetrahydropyridino[2,3-b]pyridin-7-yl)ethyl)carbamoyl)-1H, 2H, 4H, 5H-benzo[d]azepin-1-yl}acetic acid] | ≥ 4.52 |
| Cc1ccnc(NCCCCNC(=O)N2CCC(CC(=O)O)c3ccccc3C2)c1 (stereo not drawn) [2-[2-(N-{4-[(4-methyl-2-pyridyl)amino]butyl}carbamoyl)-1H, 3H, 4H, 5H-benzo[e]azepin-5-yl]acetic acid] | ≥ 4.52 |
| O=C(O)CC1CCN(C(=O)NCCCCNC(=O)NCc2ccccc2)Cc2ccccc21 (stereo not drawn) [2-{2-[N-(4-{[benzylamino]carbonylamino}butyl)carbamoyl]-1H, 3H, 4H, 5H-benzo[e]azepin-5-yl}acetic acid] | ≥ 4.52 |
| O=C(O)CC1CCN(C(=O)NCCCNc2ccccn2)Cc2ccccc21 (stereo not drawn) [Example 2, 2-(2-(N-(3-(2-pyridylamino)propyl)carbamoyl)-1H,3H,4H,5H-benzo[e]azain-5-yl)acetic acid] | ≥ 4.52 |
| O=C(O)CC1CCN(C(=O)NCCCCNc2ccccn2)Cc2ccccc21 (stereo not drawn) [Example 3, 2-(2-(N-(4-(2-pyridylamino)butyl)carbamoyl)-1H,3H,4H,5H-benzo[e]azapin-5-yl)acetic acid] | ≥ 4.52 |
| O=C(O)CC1CCN(C(=O)NCCCCCNc2ccccn2)Cc2ccccc21 (stereo not drawn) [Example 4, 2-(2-(N-(5-(2-pyridylamino)pent-1-yl)carbamoyl)-1H,3H,4H,5H-benzo[e]azapin-5-yl)acetic acid] | ≥ 4.52 |
| CN(CCCCNc1ccccn1)C(=O)N1CCC(CC(=O)O)c2ccccc2C1 (stereo not drawn) [Example 5, 2-(2-(N-methyl—N-(4-(2-pyridylamino)but-1-yl)carbamoyl)-1H,3H,4H,5H-benzo[e]azapin-5-yl)acetic acid] | ≥ 4.52 |
| O=C(O)CC1CCN(C(=O)NC2CCC(Nc3ccccn3)CC2)Cc2ccccc21 (stereo not drawn) [Example 6, 2-(2-(N-(4-(2-pyridylamino)-trans-cyclohexyl)carbamoyl)-1H,3H,4H,5H-benzo[e]azapin-5-yl)acetic acid] | ≥ 4.52 |
| O=C(O)CC1CCN(C(=O)N2CCC(CNc3ccccn3)CC2)Cc2ccccc21 (stereo not drawn) [Example 7, 2-(2-(((4-(2-pyridylamino)methyl)piperid-1-yl)carbonyl)-1H,3H,4H,5H-benzo[e]azapin-5-yl)acetic acid] | ≥ 4.52 |
| O=C(O)CC1CCN(C(=O)Nc2cccc(CNc3ccccn3)c2)Cc2ccccc21 (stereo not drawn) [Example 8, 2-(2-(N-(3-(2-pyridylamino)methylphenyl)carbamoyl)-1H,3H,4H,5H-benzo[e]azapin-5-yl)acetic acid] | ≥ 4.52 |
| Cc1cccc(NCCCCNC(=O)N2CCC(CC(=O)O)c3ccccc3C2)n1 (stereo not drawn) [Example 9, 2-(2-(N-(4-((6-methyl-2-pyridyl)amino)but-1-yl)carbamoyl)-1H,3H,4H,5H-benzo[e]azapin-5-yl)acetic acid] | ≥ 4.52 |
| O=C(O)CC1CCN(C(=O)NCCCCNc2ncccn2)Cc2ccccc21 (stereo not drawn) [Example 10, 2-(2-(N-(4-(pyrimidin-2-ylamino)but-1-yl)carbamoyl)-1H,3H,4H,5H-benzo[e]azapin-5-yl)acetic acid] | ≥ 4.52 |
| Nc1cccc(CCCNC(=O)N2CCC(CC(=O)O)c3ccccc3C2)n1 (stereo not drawn) [Example 11, 2-(2-(N-(3-(6-amino-2-pyridyl)prop-1-yl)carbamoyl)-1H,3H,4H,5H-benzo[e]azapin-5-yl)acetic acid Hydrochloride] | ≥ 4.52 |
| CC(C)(C)OC(=O)Nc1cccc(CCCNC(=O)N2CCC(CC(=O)O)c3ccccc3C2)n1 (stereo not drawn) [Example 12, 2-(2-(N-(3-(6-(tert-butoxycarbonylamino)-2-pyridyl)proyl)carbamoyl)-1H,3H,4H,5H-benzo[e]azapin-5-yl)acetic acid] | ≥ 4.52 |
| O=C(O)CC1CCN(C(=O)NCCCc2ccc3c(n2)NCCC3)Cc2ccccc21 (stereo not drawn) [Example 13, 2-(2-(N-(3-(1,2,3,4-tetrahydropyridino(2,3-b)pyridin-7-yl)prop-1-yl)carbamoyl)-1H,3H,4H,5H-benzo[e]azapin-5-yl)acetic acid] | ≥ 4.52 |
| O=C(O)CC1CCN(S(=O)(=O)NCCCCNc2ccccn2)Cc2ccccc21 (stereo not drawn) [Example 14, 2-(2-(((4-(2-pyridylamino)but-1-yl)amino)sulfonyl)-1H,3H,4H,5H-benzo[e]azapin-5-yl)acetic acid] | ≥ 4.52 |

| Structure (SMILES) | pIC50 |
| --- | --- |
| O=C(O)CC1CCN(S(=O)(=O)NCCCNc2ccccn2)Cc2ccccc21 (stereo not drawn) [Example 15, 2-(2-(((3-(2-pyridylamino)prop-1-yl)amino)sulfonyl)-1H,3H,4H,5H-benzo[e]azapin-5-yl)acetic acid] | ≥ 4.52 |
| O=C(O)CC1CCN(C(=O)CNCCNc2ccccn2)Cc2ccccc21 (stereo not drawn) [Example 16, 2-(2-(2-((2-(2-pyridylamino)ethyl)amino)acetyl)-1H,3H,4H,5H-benzo[e]azain-5-yl)acetic acid] | ≥ 4.52 |
| O=C(O)CC1CCN(C(=O)CNCCCNc2ccccn2)Cc2ccccc21 (stereo not drawn) [Example 17] | ≥ 4.52 |
| O=C(O)CC1CCN(C(=O)CNCCCCNc2ccccn2)Cc2ccccc21 (stereo not drawn) [Example 18] | ≥ 4.52 |
| O=C(O)CC1CCN(CC(=O)NCCCNc2ccccn2)Cc2ccccc21 (stereo not drawn) [Example 19, 2-(2-((N-(3-(2-pyridylamino)prop-1-yl)carbamoyl)methyl)-1H,3H,4H,5H-benzo[e]azapin-5-yl)acetic acid] | ≥ 4.52 |
| O=C(O)CC1CCN(C(=O)OCCCCNc2ccccn2)Cc2ccccc21 (stereo not drawn) [Example 20, 2-(2-(4-(2-pyridylamino)but-1-oxycarbonyl)-1H,3H,4H,5H-benzo[e]azapin-5-yl)acetic acid] | ≥ 4.52 |
| COc1ccc2c(c1)CN(C(=O)NCCCCNc1ccccn1)CCC2CC(=O)O (stereo not drawn) [Example 22, 2-(8-methoxy-2-(N-(4-(2-pyridylamino)but-1-yl)carbamoyl)-1H,3H,4H,5H-benzo[e]azaerhydroepin-5-yl)acetic acid] | ≥ 4.52 |
| O=C(O)CC1CCN(C(=O)NCCCc2ccc3c(n2)NCCC3)Cc2cc(F)ccc21 (stereo not drawn) [Example 24, 2-(8-fluoro-2-(N-(3-(1,2,3,4-tetrahydropyridino [2,3,b]pyridin-7-yl)propyl)carbamoyl)-1H,3H,4H,5H-benzo[e]azaperhydroepin-5-yl)acetic acid] | ≥ 4.52 |
| O=C(O)CC1CC(=O)N(CC(=O)NCCCNc2ccccn2)Cc2ccccc21 (stereo not drawn) [Example 25, 2-(2-({N-(4-(2-pyridylamino)prop-1-yl)carbamoyl}methyl)-3-oxo-1H,4H,5H-benzo(e)azepin-5-yl) acetic acid] | ≥ 4.52 |
| O=C(O)CC1CN(CC(=O)NCCCCNc2ccccn2)CCc2ccccc21 (stereo not drawn) [Example 27, 2-(3-({N-(4-(2-pyridylamino)but-1-yl)carbamoyl}methyl)-1H,2H,4H,5H-benzo[d]azepin-1-yl) acetic acid] | ≥ 4.52 |
| O=C(O)CC1CN(CC(=O)NCCCc2ccc3c(n2)NCCC3)CCc2ccccc21 (stereo not drawn) [Example 28, 2-(3-{[N-(3-(1,2,3,4-tetrahydropyridino[2,3-b]pyridin-7-yl)propyl)carbamoyl]methyl}-1H,2H,4H,5H-benzo[d]azepinyl)acetic acid] | ≥ 4.52 |
| O=C(O)CC1CN(C(=O)NCCCCCNc2ccccn2)CCc2ccccc21 (stereo not drawn) [Example 29, 2-(3-{N-(5-(2-pyridylamino)pent-1-yl)carbamoyl}-1H,2H,4H,5H-benzo[d]azepinyl)acetic acid] | ≥ 4.52 |
| O=C(O)CC1CN(C(=O)NCCCc2ccc3c(n2)NCCC3)CCc2ccccc21 (stereo not drawn) [Example 30, 2-{3-(N-(3-(1,2,3,4-tetrahydropyridino[2,3-b]pyridin-7-yl)propyl)carbamoyl)-1H,2H,4H,5H-benzo[d]azepin-1-yl}acetic acid] | ≥ 4.52 |
| O=C(O)CC1CN(C(=O)CCCCCCNc2ccccn2)CCc2ccccc21 (stereo not drawn) [Example 32, 2-{3-(7-(2-pyridylamino)heptanoyl)-1H,2H,4H,5H-benzo[d]azepin-1-yl}acetic acid] | ≥ 4.52 |
| CC(C)N(CCc1ccc2c(n1)NCCC2)C(=O)N1CCC(CC(=O)O)c2ccccc2C1 (stereo not drawn) [Example 41, 2-{2-[N-(methylethyl)-N-(2-(1,2,3,4-tetrahydroyridino[2,3-b]pyridin-7-yl)ethyl)carbamoyl]-1H,3H,4H,5H-benzo[e]azepin-5-yl]acetic acid] | ≥ 4.52 |
| N#C/N=C(\NCCCc1ccc2c(n1)NCCC2)N1CCC(CC(=O)O)c2ccccc2C1 (stereo not drawn) [Example 42] | ≥ 4.52 |
